Data published in patent publication US5304379A, “Method for reducing sensitization or irritation in transdermal drug delivery and means therefor” (priority 1992, dated 1994).

How the values were obtained:
[1] = test system: monoamine oxidase-dependent tetracaine metabolism; assay: In vitro metabolism of tetracaine (methods of the propranolol studies)
[2] = Patch test (elicitation) in a human subject sensitized to propranolol
Method: A human subject suspected of being sensitized to propranolol was patch tested for 16 hours with 0.5% propranolol in a 2% hydroxyethyl cellulose (HEC) gel buffered to a pH of 8.5 with 0.05M TrisHC1.
The same subject was patch tested several days later with the following compositions in 2% HEC gel buffered to a pH of 8.5 with 0.05M TrisHC1: 0.5% propranolol; 0.5% tranylcypromine; 10% 2-phenyl-1-ethanol; 0.5% propranolol with 0.5% tranylcypromine; and 0.5% propranolol with 10% 2-phenyl-1-ethanol. Each composition was placed simultaneously at different sites on the subject's volar forearm.

[3] = Patch test (elicitation) in human subjects sensitized to tetracaine, erythema by Minolta Chromameter; assay type: in vivo; conditions: 21 hours after removal
Method: Testing occurred over a period of several weeks where a positive control composition was placed on the skin along with one of the tetracaine/phenyl alcohol compositions and the intensity of the skin reaction obtained, was observed. This was repeated on different areas of the arm until all of the compositions were tested. Each formulation remained on the skin for a period of three hours and the reactions were observed during the 16-24 hour period after removal of the formulation. Erythema or redness of the reaction site was quantitated with a Minolta Chromameter. In all instances, the intensity of the reaction caused by the tetracaine/phenyl alcohol composition, was less than that caused by tetracaine alone (positive control). Thus it was established that the presence of phenyl alcohols reduced the elicitation reaction as compared to the 2% tetracaine gel.
The best results were obtained using 2-phenyl-1-ethanol and 3-phenyl-1-propanol. On a scale of 0-100, with 0 being 0% inhibition (2% tetracaine gel/positive control) and 100 being 100% inhibition (placebo gel/negative control), the following data was obtained 21 hours after removal of the formulations: […]

[4] = Induction of contact sensitization by patches in groups of 100 human subjects; assay type: in vivo; conditions: tetracaine/2-phenyl-1-ethanol patches vs tetracaine-only patches, 100 subjects each
Method: The components were blended in an internal mixing bowl at 100° C. and after approximately one hour, the mixture was extruded between two release substrates. One substrate was peeled away and a backing member was applied in its place.
Similar patches were manufactured without the presence of 2-phenyl-1-ethanol.
Two groups of 100 human subjects each were then tested. They were each tested by application of a system, for a three hour duration, once every 8 weeks.
100 subjects were given the patches containing only tetracaine. […] The other 100 subjects were given the patches containing both tetracaine and 2-phenyl-1-ethanol.

[5] = test system: propranolol metabolism in human keratinocytes; conditions: tritiated propranolol 1.5×10^-7 M, several days, metabolites by TLC, vs control incubation without tranylcypromine
Method: At the end of several days, the metabolites resulting from propranolol ,metabolism were identified and quantitated by thin layer chromatography.
Human keratinocytes were incubated in tritiated propranolol (12.5 Ci/mmole, final concentration 1.5×10^-7 M) and a range of concentration of each phenyl alcohol. Quadruplicates were used at each concentration. At six days, the metabolites resulting from propranolol deamination were extracted (ether, pH of 3) and the radioactivity of the extract was measured by scintillation counting. The concentration of each phenyl alcohol studied, which inhibits 50 percent of propranolol metabolism (MI50) was estimated by means of the Litchfield and Wilcoxon method.

[6] = test system: monoamine oxidase activity; assay type: cell-based
Description: Therefore, the metabolism of chlorpheniramine can also be inhibited in the skin or mucosa, by the addition of metabolic modulators such as the phenyl alcohols disclosed with reference to propranolol.

[7] = 2.5 weight % inhibitor with 2% tetracaine gel
[8] = 5 weight % inhibitor with 2% tetracaine gel
[9] = 10 weight % inhibitor with 2% tetracaine gel
[10] = 0.5% alone in 2% HEC gel pH 8.5, volar forearm, one day later, propranolol-sensitized subject

SMILES | Percent Inhibition of Reaction [3, 7] | Percent Inhibition of Reaction [3, 8] | Percent Inhibition of Reaction [3, 9] | inhibition of monoamine oxidase-dependent tetracaine metabolism [1] | skin reaction at patch site [2, 10] | other results
CCCCNc1ccc(C(=O)OCCN(C)C)cc1 [tetracaine] | – | – | – | – | – | portion of metabolism that is monoamine oxidase-dependent [1]: 25%
OCCc1ccccc1 [2-phenyl-1-ethanol] | 52% | 52% | 77% | could be inhibited | – | skin reaction at patch site ([2]; human, in vivo, pH 8.5): No reaction; reduction of the incidence of sensitization [4]: about 70%
OCCCc1ccccc1 [3-Phenyl-1-propanol, 3-phenyl-1-propanol] | 37% | 100% | 100% | – | – | –
CC(C)NCC(O)COc1cccc2ccccc12 (stereo not shown) [propranolol] | – | – | – | – | strong reaction | skin reaction after patch test ([2]; 0.5% in 2% HEC gel pH 8.5, 16 hours patch, one to two days later): a reaction which was characteristic of a contact sensitization reaction
N[C@@H]1C[C@H]1c1ccccc1 (relative stereo) [tranylcypromine] | – | – | – | could be inhibited | No reaction | inhibition of propranolol metabolism [5]: inhibited
CN(C)CCC(c1ccc(Cl)cc1)c1ccccn1 (stereo not shown) [chlorpheniramine] | – | – | – | – | – | dependence of in vitro skin metabolism on monoamine oxidase activity [6]: largely dependent upon monoamine oxidase activity
